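Cells were grown in 96-well plates and exposed to each compound for 48 hours at five concentrations; endpoints were interpolated linearly between bracketing concentrations, or set to the highest concentration if not reached. GI50: concentration for 50% inhibition of growth. TGI is the concentration that stops growth completely.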
Legend:
Test in all cases: inhibition of tumour cell growth, NCI panel, 48 h
OVCAR-8 ovarian = tested on: OVCAR-8 ovarian
NCI/ADR-RES ovarian = tested on: NCI/ADR-RES ovarian
COLO 205 colon = tested on: COLO 205 colon
A549 NSCLC = tested on: A549 NSCLC
HS 578T breast = tested on: HS 578T breast
MDA-MB-231 breast = tested on: MDA-MB-231 breast
M14 melanoma = tested on: M14 melanoma
A498 renal = tested on: A498 renal
IGROV1 ovarian = tested on: IGROV1 ovarian
SF-295 CNS = tested on: SF-295 CNS
SK-MEL-2 melanoma = tested on: SK-MEL-2 melanoma
SW-620 colon = tested on: SW-620 colon
MOLT-4 leukemia = tested on: MOLT-4 leukemia
HT29 colon = tested on: HT29 colon
SF-539 CNS = tested on: SF-539 CNS
HCT-116 colon = tested on: HCT-116 colon
UACC-62 melanoma = tested on: UACC-62 melanoma
PC-3 prostate = tested on: PC-3 prostate
786-0 renal = tested on: 786-0 renal
DU-145 prostate = tested on: DU-145 prostate
SK-MEL-5 melanoma = tested on: SK-MEL-5 melanoma
NCI-H23 lung = tested on: NCI-H23 lung
U251 CNS = tested on: U251 CNS
UO-31 renal = tested on: UO-31 renal
SNB-75 CNS = tested on: SNB-75 CNS
NCI-H226 lung = tested on: NCI-H226 lung
NCI-H522 lung = tested on: NCI-H522 lung
K-562 leukemia = tested on: K-562 leukemia
CAKI-1 renal = tested on: CAKI-1 renal
MALME-3M melanoma = tested on: MALME-3M melanoma
BT-549 breast = tested on: BT-549 breast
HOP-92 NSCLC = tested on: HOP-92 NSCLC
T-47D breast = tested on: T-47D breast
OVCAR-4 ovarian = tested on: OVCAR-4 ovarian
OVCAR-3 ovarian = tested on: OVCAR-3 ovarian
HCT-15 colon = tested on: HCT-15 colon
LOX IMVI melanoma = tested on: LOX IMVI melanoma
SK-OV-3 ovarian = tested on: SK-OV-3 ovarian
TK-10 renal = tested on: TK-10 renal
MDA-MB-435 = tested on: MDA-MB-435
NCI-H460 lung = tested on: NCI-H460 lung
RPMI-8226 leukemia = tested on: RPMI-8226 leukemia
SK-MEL-28 melanoma = tested on: SK-MEL-28 melanoma
HCC-2998 colon = tested on: HCC-2998 colon
HL-60(TB) leukemia = tested on: HL-60(TB) leukemia
SN12C renal = tested on: SN12C renal
HOP-62 NSCLC = tested on: HOP-62 NSCLC
RXF 393 renal = tested on: RXF 393 renal
SNB-19 CNS = tested on: SNB-19 CNS
UACC-257 melanoma = tested on: UACC-257 melanoma
OVCAR-5 ovarian = tested on: OVCAR-5 ovarian
CCRF-CEM leukemia = tested on: CCRF-CEM leukemia
KM12 colon = tested on: KM12 colon
SF-268 CNS = tested on: SF-268 CNS
ACHN renal = tested on: ACHN renal

O=C(C(Br)C(Br)c1ccccc1)C(Br)C(Br)c1ccccc1 (stereo not given)
GI50 (OVCAR-8 ovarian): 665 nM
TGI (OVCAR-8 ovarian): 2220 nM
GI50 (NCI/ADR-RES ovarian): 2950 nM
TGI (NCI/ADR-RES ovarian): 13300 nM
GI50 (COLO 205 colon): 1070 nM
TGI (COLO 205 colon): 2800 nM
GI50 (A549 NSCLC): 2880 nM
TGI (A549 NSCLC): 10100 nM
GI50 (HS 578T breast): 2580 nM
TGI (HS 578T breast): 8400 nM
GI50 (MDA-MB-231 breast): 1310 nM
TGI (MDA-MB-231 breast): 2830 nM
GI50 (M14 melanoma): 1950 nM
TGI (M14 melanoma): 4410 nM
GI50 (A498 renal): 1720 nM
TGI (A498 renal): 4120 nM
GI50 (IGROV1 ovarian): 1610 nM
TGI (IGROV1 ovarian): 3410 nM
GI50 (SF-295 CNS): 4600 nM
TGI (SF-295 CNS): 13600 nM
GI50 (SK-MEL-2 melanoma): 1870 nM
TGI (SK-MEL-2 melanoma): 3780 nM
GI50 (SW-620 colon): 321 nM
TGI (SW-620 colon): 1090 nM
GI50 (MOLT-4 leukemia): 348 nM
TGI (MOLT-4 leukemia): 1410 nM
GI50 (HT29 colon): 346 nM
TGI (HT29 colon): 1200 nM
GI50 (SF-539 CNS): 1660 nM
TGI (SF-539 CNS): 3190 nM
GI50 (HCT-116 colon): 198 nM
TGI (HCT-116 colon): 400 nM
GI50 (UACC-62 melanoma): 1320 nM
TGI (UACC-62 melanoma): 2690 nM
GI50 (PC-3 prostate): 2030 nM
TGI (PC-3 prostate): 5400 nM
GI50 (786-0 renal): 828 nM
TGI (786-0 renal): 2210 nM
GI50 (DU-145 prostate): 1460 nM
TGI (DU-145 prostate): 2910 nM
GI50 (SK-MEL-5 melanoma): 1690 nM
TGI (SK-MEL-5 melanoma): 3510 nM
GI50 (NCI-H23 lung): 2020 nM
TGI (NCI-H23 lung): 4830 nM
GI50 (U251 CNS): 1890 nM
TGI (U251 CNS): 4530 nM
GI50 (UO-31 renal): 236 nM
TGI (UO-31 renal): 846 nM
GI50 (SNB-75 CNS): 1770 nM
TGI (SNB-75 CNS): 6140 nM
GI50 (NCI-H226 lung): 1740 nM
TGI (NCI-H226 lung): 3710 nM
GI50 (NCI-H522 lung): 233 nM
TGI (NCI-H522 lung): 610 nM
GI50 (K-562 leukemia): 302 nM
TGI (K-562 leukemia): 1380 nM
GI50 (CAKI-1 renal): 389 nM
TGI (CAKI-1 renal): 1370 nM
GI50 (MALME-3M melanoma): 1400 nM
TGI (MALME-3M melanoma): 3400 nM
GI50 (BT-549 breast): 1860 nM
TGI (BT-549 breast): 3390 nM
GI50 (HOP-92 NSCLC): 1460 nM
TGI (HOP-92 NSCLC): 3010 nM
GI50 (T-47D breast): 279 nM
TGI (T-47D breast): 1420 nM
GI50 (OVCAR-4 ovarian): 1140 nM
TGI (OVCAR-4 ovarian): 2520 nM
GI50 (OVCAR-3 ovarian): 511 nM
TGI (OVCAR-3 ovarian): 1670 nM
GI50 (HCT-15 colon): 277 nM
TGI (HCT-15 colon): 849 nM
GI50 (LOX IMVI melanoma): 633 nM
TGI (LOX IMVI melanoma): 1880 nM
GI50 (SK-OV-3 ovarian): 4670 nM
TGI (SK-OV-3 ovarian): 19300 nM
GI50 (TK-10 renal): 311 nM
TGI (TK-10 renal): 1440 nM
GI50 (MDA-MB-435): 1140 nM
TGI (MDA-MB-435): 3070 nM
GI50 (NCI-H460 lung): 2270 nM
TGI (NCI-H460 lung): 5300 nM
GI50 (RPMI-8226 leukemia): 325 nM
TGI (RPMI-8226 leukemia): 1330 nM
GI50 (SK-MEL-28 melanoma): 1620 nM
TGI (SK-MEL-28 melanoma): 3360 nM
GI50 (HCC-2998 colon): 1910 nM
TGI (HCC-2998 colon): 3520 nM
GI50 (HL-60(TB) leukemia): 694 nM
TGI (HL-60(TB) leukemia): 2750 nM
GI50 (SN12C renal): 1780 nM
TGI (SN12C renal): 3830 nM
GI50 (HOP-62 NSCLC): 3080 nM
TGI (HOP-62 NSCLC): 8890 nM
GI50 (RXF 393 renal): 527 nM
TGI (RXF 393 renal): 1770 nM
GI50 (SNB-19 CNS): 3490 nM
TGI (SNB-19 CNS): 14900 nM
GI50 (UACC-257 melanoma): 1370 nM
TGI (UACC-257 melanoma): 2920 nM
GI50 (OVCAR-5 ovarian): 1570 nM
TGI (OVCAR-5 ovarian): 2950 nM
GI50 (CCRF-CEM leukemia): 236 nM
TGI (CCRF-CEM leukemia): 886 nM
GI50 (KM12 colon): 2100 nM
TGI (KM12 colon): 4270 nM
GI50 (SF-268 CNS): 2260 nM
TGI (SF-268 CNS): 5620 nM
GI50 (ACHN renal): 253 nM
TGI (ACHN renal): 630 nM
